This is an account of results in patent publication US11713309B2, “Solid forms of Cerdulatinib” (Alexion Pharmaceuticals, Inc., priority 2018, dated 2023).

Counter-ions that a name gives are not always drawn.

Data set [1] can be described thus: Solid-state storage stability at controlled temperature/RH. In kind it is physicochemical. The note with it: for Form change / HPLC purity on storage: 2 weeks, initial HPLC purity 99.3%. The method, then: Storage at 25° C./60% RH and at 40° C./75% RH: Compound I HCl Form I was stored at 25° C./60% RH and at 40° C./75% RH. Initial HPLC purity was 99.3%.
Data set [2] can be described thus: Kinetic solubility in water. The note with it: 37° C., listed as HC1 salt Form I; for pH of supernatant: water (native pH 7.6); for Kinetic solubility: water. The format is physicochemical. The method, then:
Kinetic solubility testing was conducted as follows: About 40-55 mg material was weighed into a 5-mL EP pipe. 4 mL of water/bio-relevant media (SGF, FaSSIF, or FeSSIF) was added into the corresponding sample pipe (drug loading: ˜10 mg/mL calculated as freebase). The pipes were capped tightly and the material was verified to be in contact with the media. The sample vials were placed on a roller and start rolling at 37° C. (rate: 25 r/min). Samples were taken at 1, 2, 4, 24 h. For each time point, 1.0 mL of suspension was transferred into a 2-mL centrifuge tube and the samples were centrifuged. The supernatant was filtered via 0.45 μm PTFE membrane and solubility and pH were measured. An XRPD test on residual solids was conducted.

Take `CCS(=O)(=O)N1CCN(c2ccc(Nc3ncc(C(N)=O)c(NC4CC4)n3)cc2)CC1` [Compound I HCl Form I, 4-(cyclopropylamino)-2-(4-(4-(ethylsulfonyl)piperazin-1-yl)phenylamino)pyrimidine-5-carboxamide]: the “Form change / HPLC purity on storage” value in data set [1] (25° C./60% RH) and in data set [1] (40° C./75% RH) was “No form change or decrease in purity by HPLC” each time. For the same compound, the “Form change on storage (XRPD, TGA and DSC)” value in data set [1] (powder, about 6 months, about 40° C./75% RH, open dish) is given as “did not exhibit any form change”. For the same compound, the pH of supernatant in data set [2] (1 h) is listed as 3.1; in data set [2] (2 h) it was 2.9; in data set [2] (4 h) it was 3.0; in data set [2] (24 h), 2.9. In addition, the Kinetic solubility is 0.22 mg/mL in data set [2] (1 h), 0.25 mg/mL in data set [2] (2 h), 0.18 mg/mL in data set [2] (4 h) and 0.18 mg/mL in data set [2] (24 h).
